# pIC50: −log10 of the molar value.
# Legend:
# Format in all cases: binding
# CBP = molecular target: T1, CBP (Homo sapiens, UniProt Q92793); assay: AlphaScreen selectivity screen, CBP
# T1 construct: made in house
# Description: IC50 (µM) IC50 (µM) IC50 (µM) IC50 (µM) (µM) (µM) (µM)
# Supplementary Table 1. […]
# GCN5 = molecular target: T2, GCN5 (Homo sapiens, UniProt Q92830); assay: Thermal shift assay, GCN5
# T2 construct: purchased in-house (SGC bromodomain thermal shift / AlphaScreen panel)
# T2 sequence (Q92830 whole entry): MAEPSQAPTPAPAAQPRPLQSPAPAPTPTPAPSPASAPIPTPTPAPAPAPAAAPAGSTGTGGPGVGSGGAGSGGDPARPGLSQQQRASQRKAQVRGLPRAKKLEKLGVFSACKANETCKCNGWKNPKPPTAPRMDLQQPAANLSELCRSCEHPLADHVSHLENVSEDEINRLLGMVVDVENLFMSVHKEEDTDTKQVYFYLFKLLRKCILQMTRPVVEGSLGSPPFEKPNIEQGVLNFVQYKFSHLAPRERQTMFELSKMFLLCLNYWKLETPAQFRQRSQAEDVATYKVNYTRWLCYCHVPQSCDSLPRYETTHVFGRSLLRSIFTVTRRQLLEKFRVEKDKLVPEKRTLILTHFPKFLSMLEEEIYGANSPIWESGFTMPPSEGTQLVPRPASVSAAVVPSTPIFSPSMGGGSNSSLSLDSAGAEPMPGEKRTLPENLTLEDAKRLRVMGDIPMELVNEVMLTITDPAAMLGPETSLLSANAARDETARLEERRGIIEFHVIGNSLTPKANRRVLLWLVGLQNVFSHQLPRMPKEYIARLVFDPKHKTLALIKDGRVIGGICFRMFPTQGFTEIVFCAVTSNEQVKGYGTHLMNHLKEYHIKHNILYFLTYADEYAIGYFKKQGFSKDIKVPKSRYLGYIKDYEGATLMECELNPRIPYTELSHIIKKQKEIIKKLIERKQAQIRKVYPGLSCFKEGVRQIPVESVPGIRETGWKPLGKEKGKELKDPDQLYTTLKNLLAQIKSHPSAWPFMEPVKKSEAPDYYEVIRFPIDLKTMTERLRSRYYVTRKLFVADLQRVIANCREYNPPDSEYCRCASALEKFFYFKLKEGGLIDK
# Method: (§1) II.VII Thermal Shift Assay[6]
# (§2) Thermal melting experiments were carried out using an Mx3005p Real Time PCR machine (Stratagene). Proteins were buffered in 10 mM HEPES pH 7.5, 500 mM NaCl and assayed in a 96-well plate at a final concentration of 2 μM in 20 μL volume. Compounds were added at a final concentration of 50 μM. SYPRO Orange (Molecular Probes) was added as a fluorescence probe at a dilution of 1:1000. Excitation and emission filters for the SYPRO-Orange dye were set to 465 nm and 590 nm, respectively. The temperature was raised with a step of 3 °C per minute from 25 °C to 96 °C and fluorescence readings were taken at each interval. The unfolding curves were fitted using the Boltzmann equation to determine the middle point of the transition.
# BRPF3 = molecular target: T3, BRPF3 (Homo sapiens, UniProt Q9ULD4); assay: Thermal shift assay, BRPF3
# T3 construct: purchased in-house (SGC bromodomain thermal shift / AlphaScreen panel)
# T3 sequence (Q9ULD4 1-1205): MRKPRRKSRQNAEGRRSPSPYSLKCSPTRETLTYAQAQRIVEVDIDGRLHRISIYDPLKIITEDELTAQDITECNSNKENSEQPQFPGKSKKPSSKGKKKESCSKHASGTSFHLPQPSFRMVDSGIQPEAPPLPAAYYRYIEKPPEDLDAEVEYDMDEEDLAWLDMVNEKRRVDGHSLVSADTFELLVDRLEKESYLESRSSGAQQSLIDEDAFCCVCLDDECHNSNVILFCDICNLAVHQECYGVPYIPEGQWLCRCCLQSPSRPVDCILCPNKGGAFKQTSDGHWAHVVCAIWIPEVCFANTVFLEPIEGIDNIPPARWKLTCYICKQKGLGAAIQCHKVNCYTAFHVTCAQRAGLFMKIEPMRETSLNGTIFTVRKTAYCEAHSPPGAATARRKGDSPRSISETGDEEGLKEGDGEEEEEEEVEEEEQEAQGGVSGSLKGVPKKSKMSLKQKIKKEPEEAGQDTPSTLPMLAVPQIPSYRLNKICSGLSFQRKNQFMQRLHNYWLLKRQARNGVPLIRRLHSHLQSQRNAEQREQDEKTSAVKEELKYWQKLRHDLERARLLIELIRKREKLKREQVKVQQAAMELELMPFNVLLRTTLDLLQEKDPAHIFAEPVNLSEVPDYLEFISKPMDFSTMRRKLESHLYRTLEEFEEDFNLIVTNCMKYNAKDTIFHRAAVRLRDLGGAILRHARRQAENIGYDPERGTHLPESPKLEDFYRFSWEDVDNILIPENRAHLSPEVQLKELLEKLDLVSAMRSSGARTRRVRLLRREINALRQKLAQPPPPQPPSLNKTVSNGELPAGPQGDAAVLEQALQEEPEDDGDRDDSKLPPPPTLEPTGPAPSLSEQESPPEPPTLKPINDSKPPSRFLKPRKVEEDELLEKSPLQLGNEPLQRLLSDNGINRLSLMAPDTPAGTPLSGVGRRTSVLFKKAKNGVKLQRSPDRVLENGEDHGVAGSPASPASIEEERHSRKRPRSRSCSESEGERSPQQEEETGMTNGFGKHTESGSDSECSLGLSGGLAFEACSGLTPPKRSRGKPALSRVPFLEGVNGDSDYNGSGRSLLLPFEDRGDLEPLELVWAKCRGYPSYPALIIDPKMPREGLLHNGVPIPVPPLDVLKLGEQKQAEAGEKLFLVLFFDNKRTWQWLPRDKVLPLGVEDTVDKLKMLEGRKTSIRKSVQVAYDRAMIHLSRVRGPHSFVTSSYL
# Method: as §1, §2
# BAZ2B = molecular target: T4, BAZ2B (Homo sapiens, UniProt Q9UIF8); assay: Thermal shift assay, BAZ2B
# T4 construct: purchased in-house (SGC bromodomain thermal shift / AlphaScreen panel)
# T4 sequence (Q9UIF8 whole entry): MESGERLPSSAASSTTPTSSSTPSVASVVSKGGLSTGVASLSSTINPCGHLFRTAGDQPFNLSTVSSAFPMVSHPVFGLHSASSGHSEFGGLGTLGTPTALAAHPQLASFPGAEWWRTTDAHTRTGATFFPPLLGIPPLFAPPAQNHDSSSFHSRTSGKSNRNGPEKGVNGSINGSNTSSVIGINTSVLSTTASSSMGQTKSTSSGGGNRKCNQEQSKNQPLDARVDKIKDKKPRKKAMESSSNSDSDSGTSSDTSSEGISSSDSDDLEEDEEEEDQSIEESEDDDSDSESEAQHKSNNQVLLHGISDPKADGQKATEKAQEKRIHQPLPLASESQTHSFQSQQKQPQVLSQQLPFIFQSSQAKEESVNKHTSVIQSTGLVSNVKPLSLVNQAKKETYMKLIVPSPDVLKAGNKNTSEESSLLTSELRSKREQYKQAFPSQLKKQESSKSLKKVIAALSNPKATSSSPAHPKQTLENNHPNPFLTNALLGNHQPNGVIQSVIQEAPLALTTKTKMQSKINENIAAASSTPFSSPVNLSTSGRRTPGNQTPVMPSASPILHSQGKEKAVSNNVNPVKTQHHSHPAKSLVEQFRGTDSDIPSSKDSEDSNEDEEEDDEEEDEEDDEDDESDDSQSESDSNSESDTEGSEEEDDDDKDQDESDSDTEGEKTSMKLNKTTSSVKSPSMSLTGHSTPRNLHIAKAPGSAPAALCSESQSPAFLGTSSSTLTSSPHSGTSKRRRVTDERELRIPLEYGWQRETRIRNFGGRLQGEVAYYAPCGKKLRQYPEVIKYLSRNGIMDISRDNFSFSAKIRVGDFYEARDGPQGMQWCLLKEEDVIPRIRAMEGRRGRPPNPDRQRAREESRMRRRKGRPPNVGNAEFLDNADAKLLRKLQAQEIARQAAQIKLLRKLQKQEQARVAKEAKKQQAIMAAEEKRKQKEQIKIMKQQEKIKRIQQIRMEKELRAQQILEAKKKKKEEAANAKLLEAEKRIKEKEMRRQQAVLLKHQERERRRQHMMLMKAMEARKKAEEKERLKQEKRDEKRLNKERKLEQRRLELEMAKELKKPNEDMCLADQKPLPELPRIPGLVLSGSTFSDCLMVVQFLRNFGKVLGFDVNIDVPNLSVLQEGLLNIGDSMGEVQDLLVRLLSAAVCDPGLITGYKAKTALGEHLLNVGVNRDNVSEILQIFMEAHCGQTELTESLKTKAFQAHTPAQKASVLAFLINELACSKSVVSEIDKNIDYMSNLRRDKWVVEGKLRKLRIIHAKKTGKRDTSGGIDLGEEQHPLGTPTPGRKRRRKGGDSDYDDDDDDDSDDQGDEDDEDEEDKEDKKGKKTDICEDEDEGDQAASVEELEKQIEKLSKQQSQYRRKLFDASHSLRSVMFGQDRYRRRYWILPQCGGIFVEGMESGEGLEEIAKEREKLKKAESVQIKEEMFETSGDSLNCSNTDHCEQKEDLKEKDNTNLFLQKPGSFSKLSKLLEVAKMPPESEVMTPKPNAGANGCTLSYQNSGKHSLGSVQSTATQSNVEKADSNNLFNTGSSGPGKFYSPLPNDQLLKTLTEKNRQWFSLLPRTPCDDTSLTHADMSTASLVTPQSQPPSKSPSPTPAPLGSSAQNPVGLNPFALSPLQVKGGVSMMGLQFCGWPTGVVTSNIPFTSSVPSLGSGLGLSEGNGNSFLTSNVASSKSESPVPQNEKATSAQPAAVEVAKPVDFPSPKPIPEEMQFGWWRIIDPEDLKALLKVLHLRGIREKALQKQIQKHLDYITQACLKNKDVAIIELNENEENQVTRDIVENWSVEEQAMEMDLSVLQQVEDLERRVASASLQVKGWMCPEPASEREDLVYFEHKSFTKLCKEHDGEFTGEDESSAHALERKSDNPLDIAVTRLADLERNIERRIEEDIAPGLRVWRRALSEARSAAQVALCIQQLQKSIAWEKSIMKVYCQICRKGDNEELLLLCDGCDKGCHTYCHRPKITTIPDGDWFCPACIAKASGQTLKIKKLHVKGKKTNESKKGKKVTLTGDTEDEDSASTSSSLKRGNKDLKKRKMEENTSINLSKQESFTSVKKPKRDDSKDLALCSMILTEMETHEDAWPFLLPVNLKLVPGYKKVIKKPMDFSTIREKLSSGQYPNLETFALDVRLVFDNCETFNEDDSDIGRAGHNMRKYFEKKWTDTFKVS
# Method: as §1, §2
# BRD1 = molecular target: T5, BRD1 (Homo sapiens, UniProt O95696); assay: Thermal shift assay, BRD1
# T5 construct: purchased in-house (SGC bromodomain thermal shift / AlphaScreen panel)
# T5 sequence (O95696 1-1058): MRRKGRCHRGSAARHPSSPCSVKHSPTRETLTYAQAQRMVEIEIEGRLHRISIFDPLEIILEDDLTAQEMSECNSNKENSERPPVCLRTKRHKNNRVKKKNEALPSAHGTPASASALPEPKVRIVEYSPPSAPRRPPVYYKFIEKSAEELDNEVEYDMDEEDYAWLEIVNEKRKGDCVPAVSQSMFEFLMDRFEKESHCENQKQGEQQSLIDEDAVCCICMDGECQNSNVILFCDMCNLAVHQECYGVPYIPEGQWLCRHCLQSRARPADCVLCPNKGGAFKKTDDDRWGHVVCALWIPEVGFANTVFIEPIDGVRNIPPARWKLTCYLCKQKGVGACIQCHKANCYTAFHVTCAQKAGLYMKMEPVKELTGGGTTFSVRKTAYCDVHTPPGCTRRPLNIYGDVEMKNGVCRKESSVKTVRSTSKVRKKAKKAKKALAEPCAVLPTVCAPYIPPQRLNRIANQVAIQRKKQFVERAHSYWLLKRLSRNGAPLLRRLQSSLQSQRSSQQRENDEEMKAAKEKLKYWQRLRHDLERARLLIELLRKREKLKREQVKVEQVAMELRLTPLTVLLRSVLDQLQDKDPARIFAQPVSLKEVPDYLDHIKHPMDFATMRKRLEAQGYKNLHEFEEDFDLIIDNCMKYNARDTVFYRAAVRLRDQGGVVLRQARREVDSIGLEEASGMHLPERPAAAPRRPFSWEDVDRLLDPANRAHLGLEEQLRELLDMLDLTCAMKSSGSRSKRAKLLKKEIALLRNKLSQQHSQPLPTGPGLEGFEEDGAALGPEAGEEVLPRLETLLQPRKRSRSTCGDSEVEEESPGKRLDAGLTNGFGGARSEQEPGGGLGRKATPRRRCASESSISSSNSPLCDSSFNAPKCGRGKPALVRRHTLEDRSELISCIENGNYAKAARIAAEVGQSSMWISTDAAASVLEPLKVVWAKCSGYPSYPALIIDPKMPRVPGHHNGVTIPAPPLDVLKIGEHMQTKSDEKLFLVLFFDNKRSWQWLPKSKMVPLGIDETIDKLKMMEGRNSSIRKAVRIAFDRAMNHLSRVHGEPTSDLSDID
# Method: as §1, §2
# T1 sequence (Q92793 1085-1192 limits assumed): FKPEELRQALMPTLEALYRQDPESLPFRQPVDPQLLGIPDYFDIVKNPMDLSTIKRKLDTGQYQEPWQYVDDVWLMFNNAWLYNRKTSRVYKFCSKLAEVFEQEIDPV
"Thermal stabilisation, GCN5 (GCN5; 10 µM compound concentration)","Thermal stabilisation, BRPF3 (BRPF3; 10 µM compound concentration)","Thermal stabilisation, BAZ2B (BAZ2B; 10 µM compound concentration)","Thermal stabilisation, BRD1 (BRD1; 10 µM compound concentration)",SMILES,inhibition of CBP (CBP; 10 μM using AS),pIC50 (CBP; AlphaScreen selectivity screen),"Thermal stabilisation, GCN5 (GCN5; 50 μM compound)","Thermal stabilisation, BRPF3 (BRPF3; 50 μM compound)","Thermal stabilisation, BAZ2B (BAZ2B; 50 μM compound)","Thermal stabilisation, BRD1 (BRD1; 50 μM compound)"
,,,,C[C@H]1CCCN1Cc1nc2cc(NC(=O)c3ccc4c(cnn4C)c3)ccc2[nH]1 [Compound 92],no inhibition,< 5.00,-0.225,-0.245,0.155,0.215
0.925,1,1.385,2.055,"CCOC(=O)Nc1cc(-c2ccc(C)c(NS(C)(=O)=O)c2)nn2c(C)nnc12 [Bromosporine, reference compound]",,,,,,
,,,,COC(=O)c1ccc(C(=O)Nc2ccc3[nH]c(CN4CCCCC4)nc3c2)cc1 [Compound 1],,,0.145,1.015,0.57,0.2

# From PMC6348381, “Discovery of an MLLT1/3 YEATS Domain Chemical Probe” (Angewandte Chemie (International Ed. in English), 2018)
